# From patent publication US20150051246A1 (priority 2013, published 2015)
# Experiments:
# male Wistar rats = experiment: Object recognition task (ORT), scopolamine induced memory deficit; type: in vivo
# Procedure: Memory acquisition processes are investigated using the object recognition test (ORT).
# Twenty four 3-4 month old male Wistar rats (Charles River, Sulzfeld, Germany) were used for the study. All animals were housed individually in standard green line Tecniplast IVC cages on stardust bedding. The animals were housed on a reversed 12/12 h light/dark cycle (lights on from 07:00 pm to 07:00 am) and had free access to food and water. The rats were housed and tested in the same room. A radio, playing softly, provided background noise in the room. All testing was performed between 09:00 am and 06:00 pm.
# Drugs were prepared daily, except as indicated otherwise. Roflumilast (Takeda, Konstanz, Germany, MW 403.21) was dissolved in 98% methylcellulose solution (0.5% methylcellulose) and 2% Tween 80. Roflumilast in doses of 0 (vehicle), 0.0001, 0.0003, 0.001, 0.003, 0.01 and 0.03 mg/kg was administered intraperitonally (ip, injection volume 1 ml/kg). […] All compounds were administered 30 min before T1.
# The testing order of conditions was determined randomly. The experimenter was blind of testing protocol. A within design was used and all treatment conditions were balanced over rats. The ORT was performed as described elsewhere (Ennaceur and Delaceur, 1988, Behav Brain Res, Vol 31, pp 47-59; Akkerman et al; 2012, Behav Brain Res, Vol 232, pp 335-347). The apparatus consisted of a circular arena, 83 cm in diameter. The back half of the 40 cm high wall was made of grey PVC and the front was made of transparent PVC. Fluorescent red tubes and a light bulb provided a constant illumination of about 20 lux on the floor of the apparatus. The light intensity was equal in the different parts of the apparatus.
# Two objects were placed in symmetrical positions at the mid-line between the gray and transparent halves of the arena, about ten centimeters away from wall. Four different sets of objects were available: 1) a standard 1 L brown transparent glass bottle (diameter 10 cm, height 22 cm) filled with water, 2) a metal cube (10.0×5.0×7.5 cm) with two holes (diameter 1.9 cm), 3) a cone consisting of a gray PVC base (maximal diameter 18 cm) with a collar on top made of brass (total height 16 cm), and 4) an aluminum cube with a tapering top (13.0×8.0×8.0 cm). Objects were presented to the animals in a balanced manner to avoid object or place biases. Rats were unable to displace the objects.
# A test session comprised two trials, each with durations of 3 min. During the learning trial (T1) the apparatus contains two identical objects (object a1 and a2). Rats were always introduced into the apparatus with their nose towards the transparent wall segment (i.e. facing outwards to the front of the arena). Subsequently, rats were put back in its home cage for a 1 h interval. After the retention interval, rats were put back into the arena for the […] (T2). In T2, the two objects from T1 were replaced by one identical copy (a3) and a different novel object (b). The times spent in exploring each object during T1 and T2 were recorded manually on a personal computer.
# Exploration was defined in the following manner: directing the nose to the object at a distance of no more than 2 cm and/or touching the object with the nose. Sitting on the object was not considered as exploratory behavior. In order to avoid the presence of olfactory cues, the objects were thoroughly cleaned with a 70% ethanol solution before each trial.
# Prior to compound testing, the animals were handled for 5 min on 2 consecutive days and allowed to explore the ORT arena, also for 5 min. Subsequently, the animals were accustomed to the complete ORT testing procedure without receiving any injection.
# The readout parameters of the object recognition task are the times that rats spent on exploring each object during T1 and T2. The exploration time (in seconds) of each object during T1 are presented as “a1” and “a2”.
# rats [1] = conditions: cited from earlier work
# rats [2] = conditions: cited from earlier work; remark: listed apart in the source
# phosphodiesterase 4 = conditions: in humans after roflumilast; cited from earlier work
# [3] = type: in vivo, human; conditions: once a day (24 h) repeated dosing
# Procedure: In the above-indicated clinical trial roflumilast was administered once in a single oral dose of 100 mcg, 300 mcg or 1000 mcg. Due to the pharmacokinetics of roflumilast and its metabolite roflumilast-N-oxide and the median plasma half-life of these compounds the steady state plasma concentration levels in a once a day (24 h) repeated dosing regimen of roflumilast/roflumilast-N-oxide is about two-fold compared to the plasma concentration levels following a once a day single dosing.
# [4] = type: in vivo, human; conditions: plasma, single dose
# From the text: An interim analysis has been performed based on the data of 9 subjects of the Impaired Elderly group and 4 subjects of the Healthy Elderly group. For this purpose, cognitive battery test scores (VLT, SMT, Stroop task and BL-VAS) and concentrations of roflumilast and roflumilast-N-oxide in plasma have been analysed and summarized by dose over each scheduled sampling time using descriptive statistics.
# [5] = tested on: xylazine/ketamine induced α2-adrenergic receptor-mediated anesthesia; conditions: in vivo, 0.3 mg/kg
# From the text: Since emesis is a typical side-effect of PDE4 inhibitors the emetic potential of roflumilast and rolipram was investigated in parallel using the xylazine/ketamine induced α2-adrenergic receptor-mediated anesthesia test. The results confirmed that the two phosphodiesterase 4 inhibitors have different effects on emesis.
# male C57BL/6NCrl mice = experiment: Object Location Task (OLT), spatial memory, 24 h retention interval; type: in vivo; conditions: for d2 index, discrimination index for T2: 3 h after T1, 24 h interval
# From the text: The objective of this study was to evaluate the cognitive improvement effects of Roflumilast on spatial memory employing Object Location Task (OLT) in male C57BL/6NCrl mice. Roflumilast was compared with data of the already established PDE4 inhibitor Rolipram in the same model.
# Twenty-four 7 month-old male C57BL/6NCrl mice (Charles River, L'Arbresle, France) were used (average body weights: 27.6 g). The animals were kept under a 12/12-hour light/dark cycle (lights on from 07.00 pm to 07.00 am) with free access to food and water. All testing was done between 09.00 am and maximally 06.00 pm.
# Both rolipram (Sigma-Aldrich St. Louis, USA; MW 275.34) and roflumilast (Biocrea, Radebeul, Germany; MW 403.21) were dissolved in dimethylsulfoxide (DMSO) and kept at 4° C.; this stock solution was used for further dilutions in 0.5% methylcellulose. Each of rolipram and roflumilast is used in form of its free base. All injected solutions consisted of 0.5% methylcellulose with a fixed DMSO percentages (1.2%) (vehicle).
# For the Object Location Task (OLT), doses of 0.01 mg/kg, 0.03 mg/kg and 0.1 mg/kg of Rolipram or Roflumilast or vehicle were administered subcutaneously (s.c.). Based on previous findings, PDE4 inhibitor single administration was performed 3 hours after the first trial as this has an optimum effect on object memory performance. The injection volume was 5 μl/g.
# The OLT apparatus consisted of a circular arena, 40 cm in diameter. Half of the 40 cm transparent polyvinyl chloride wall was covered from the outside with white paper. Two objects were placed symmetrically about 10 cm away from the wall on the separation line, between the transparent and covered side of the arena. Four different sets of objects were available: (1) a cone made of brass (maximal diameter 6 cm and total height 3.8 cm), (2) a transparent glass bottle (diameter 2.7 cm, height 8.5 cm) filled with sand and water, (3) a massive metal cube (2.5 cm×5 cm×7.5 cm) with two holes (diameter 1.5 cm), and (4) a massive aluminum cube with a tapering top (4.5 cm×4.5 cm×8.5 cm).
# A testing session comprised two trials of 4 minutes. Before each trial, mice were placed in an empty Makrolon cage (incubation cage) for the same amount of time as the trial (4 min). During the first trial (T1), two identical objects were placed symmetrically about 10 cm away from the wall on the separation line between the transparent and covered side of the arena. After the first exploration period of 4 min, the mouse was put back in its home cage. Mice then received treatment at 3 hours post T1. Subsequently, after a predetermined delay interval (24 h), the mouse was placed in the apparatus for the second trial of 4 min (T2). Two identical objects as in T1 were used; one object was placed in the previously used position, whereas the other was placed in a novel position. The novel position of the object could either be a fixed distance towards the front or a fixed distance towards the back of the arena for both objects. The times spent exploring each object during T1 and T2 were recorded manually using a personal computer. All objects and locations were used in a balanced manner to exclude possible object and/or location preferences. To avoid olfactory cues, the objects were thoroughly cleaned with 70% ethanol after each trial. The testing order of conditions was determined randomly.
# The measurements reflected the time spent by the mice in exploring each object during T1 and T2. The time spent in exploring the two identical samples in T1 were represented by ‘a1’ and ‘a2’, respectively. The time spent in exploring the sample and the new object in T2 were represented by ‘a’ and ‘b’, respectively. From these exploration times the following variables were calculated: e1, e2, and d2 (Table 1). The d2 index is a relative measure of discrimination corrected for exploratory activity. […]
compound,measurement,setting,value
"COc1cc2c(cc1OC)C(=O)C(CC1CCN(Cc3ccccc3)CC1)C2.Cl (racemic) [donepezil, (±)-2,3-dihydro-5,6-dimethoxy2-[[1-(phenylmethyl)-4-piperidinyl]methyl]-1H-inden-1-one]",d2,male Wistar rats; scopolamine 0.1 mg/kg + donepezil 0.1 mg/kg p.o.,0.04
O=C(NC1CC1)c1cn(-c2cccc(-c3ccc([C@@H]4C[C@H]4C(=O)O)c(F)c3)c2)c2ncccc2c1=O [MK-0952],novel object recognition (in words),rats [1],improvement of novel object recognition
same,Water Maze DMTP test (in words),rats [2],improvement
"O=C(Nc1c(Cl)c[n+]([O-])cc1Cl)c1ccc(OC(F)F)c(OCC2CC2)c1 [roflumilast-N-oxide, 3-cyclopropylmethoxy-4-difluoromethoxy-N-(3,5-dichloro-1-oxypyrid-4-yl)benzamide]",share of overall phosphodiesterase 4 inhibition,phosphodiesterase 4,more than 90%
same,steady state plasma concentration levels compared to single dosing,[3],about two-fold
same,exposure,[4],consistent with those previously reported
COc1ccc(C2CNC(=O)C2)cc1OC1CCCC1 (stereo not shown) [rolipram],emetic potential,[5],strong emetic potential
same,"d2 index, discrimination index for T2",male C57BL/6NCrl mice; 0.01 mg/kg s.c.,0.08
same,"d2 index, discrimination index for T2",male C57BL/6NCrl mice; 0.03 mg/kg s.c.,0.13
same,"d2 index, discrimination index for T2",male C57BL/6NCrl mice; 0.1 mg/kg s.c.,0.07
same,dose effective in improving spatial memory,male C57BL/6NCrl mice; s.c.,0.03 mg/kg
CN1[C@@H]2C[C@@H](OC(=O)[C@H](CO)c3ccccc3)C[C@H]1[C@@H]1O[C@@H]12 [scopolamine],d2,"male Wistar rats; scopolamine 0.1 mg/kg + veh + veh, rof + dpz study",−0.04
same,d2,"male Wistar rats; scopolamine 0.1 mg/kg ip + vehicle, dose response study",0.01
